Laboratory results taken from patent publication US9957237B2, “Crystal form of neptinib di-p-methylbenzenesulfonate, preparation method thereof, and pharmaceutical composition containing same” (SHENZHEN NEPTUNUS PHARMACEUTICAL RESEARCH INSTITUTE CO., …, priority 2014, dated 2018).

Test: Stability studies (stress testing, accelerated test for 10 days) on crystal forms and free base
Assay type: physicochemical
Description: Detection conditions: Chromatographic column: Waters C18; Mobile phase A: acetonitrile-mobile phase B (70:30); Mobile phase B: 0.05 mol/l ammonium dihydrogen phosphate solution (pH=7.3); Column temperature: 30° C.; Detection wavelength: 247 nm.
Detection method: High performance liquid chromatography method, Pharmacopoeia of the People's Republic of China, Part II Appendix VD

[1] = Day 10, relative humidity 92.5%
[2] = Day 10, stress condition not given

Structure (SMILES): CCOc1cc2ncnc(Nc3ccc(F)c(Cl)c3)c2cc1NC(=O)/C=C/CN(C)C.Cc1ccc(S(=O)(=O)O)cc1 [crystal form α, (E)-N-(4-((3-chloro-4-fluorophenyl)amino)-7-ethoxyquinazolin-yl)-4-(dimethylamino)but-2-enamide (Neptinib) di-p-methylbenzene sulfonate 1.5 hydrate]
- Maximum single impurity (%) (Day 0): 0.021 (RRT: 1.22) %
- Purity (%) (Day 0): 99.98%
- Total impurities (%) (Day 0): 0.02%
- Water (%) (Day 0): 3.3%
- Maximum single impurity (%) (Day 5, 40° C.): 0.022 (RRT: 1.22) %
- Purity (%) (Day 5, 40° C.): 99.98%
- Total impurities (%) (Day 5, 40° C.): 0.02%
- Water (%) (Day 5, 40° C.): 3.3%
- Maximum single impurity (%) (Day 5, 60° C.): 0.022 (RRT: 1.22) %
- Purity (%) (Day 5, 60° C.): 99.96%
- Total impurities (%) (Day 5, 60° C.): 0.04%
- Water (%) (Day 5, 60° C.): 3.3%
- Maximum single impurity (%) (Day 5, light irradiation): 0.051 (RRT: 0.93) %
- Purity (%) (Day 5, light irradiation): 99.93%
- Total impurities (%) (Day 5, light irradiation): 0.07%
- Water (%) (Day 5, light irradiation): 3.1%
- Maximum single impurity (%) (Day 5, relative humidity 75%): 0.021 (RRT: 1.22) %
- Purity (%) (Day 5, relative humidity 75%): 99.98%
- Total impurities (%) (Day 5, relative humidity 75%): 0.02%
- Water (%) (Day 5, relative humidity 75%): 3.1%
- Maximum single impurity (%) (Day 5, relative humidity 92.5%): 0.021 (RRT: 1.22) %
- Purity (%) (Day 5, relative humidity 92.5%): 99.98%
- Total impurities (%) (Day 5, relative humidity 92.5%): 0.02%
- Water (%) (Day 5, relative humidity 92.5%): 3.2%
- Maximum single impurity (%) (Day 10, 40° C.): 0.022 (RRT: 1.22) %
- Purity (%) (Day 10, 40° C.): 99.98%
- Total impurities (%) (Day 10, 40° C.): 0.02%
- Water (%) (Day 10, 40° C.): 3.3%
- Maximum single impurity (%) (Day 10, 60° C.): 0.020 (RRT: 1.22) %
- Purity (%) (Day 10, 60° C.): 99.96%
- Total impurities (%) (Day 10, 60° C.): 0.04%
- Water (%) (Day 10, 60° C.): 3.3%
- Maximum single impurity (%) (Day 10, light irradiation): 0.055 (RRT: 0.93) %
- Purity (%) (Day 10, light irradiation): 99.91%
- Total impurities (%) (Day 10, light irradiation): 0.09%
- Water (%) (Day 10, light irradiation): 3.1%
- Maximum single impurity (%) (Day 10, relative humidity 75%): 0.022 (RRT: 1.22) %
- Purity (%) (Day 10, relative humidity 75%): 99.98%
- Total impurities (%) (Day 10, relative humidity 75%): 0.02%
- Water (%) (Day 10, relative humidity 75%): 3.1%
- Maximum single impurity (%) [1]: 0.022 (RRT: 1.22) %
- Purity (%) [1]: 99.98%
- Total impurities (%) [1]: 0.02%
- Water (%) [1]: 3.2%
- Maximum single impurity (%) [2]: 0.022 (RRT: 1.22) %
- Purity (%) [2]: 99.98%
- Total impurities (%) [2]: 0.02%
- Water (%) [2]: 3.2%

Structure (SMILES): CCOc1cc2ncnc(Nc3ccc(F)c(Cl)c3)c2cc1NC(=O)/C=C/CN(C)C.Cc1ccc(S(=O)(=O)O)cc1.Cc1ccc(S(=O)(=O)O)cc1.O.O [crystal form β, (E)-N-(4-((3-chloro-4-fluorophenyl)amino)-7-ethoxyquinazolin-6-yl)-4-(dimethylamino)but-2-enamide (Neptinib) di-p-methylbenzene sulfonate 2 hydrate]
- Maximum single impurity (%) (Day 0): 0.017 (RRT: 1.22) %
- Purity (%) (Day 0): 99.97%
- Total impurities (%) (Day 0): 0.03%
- Water (%) (Day 0): 4.4%
- Maximum single impurity (%) (Day 5, 40° C.): 0.020 (RRT: 1.22) %
- Purity (%) (Day 5, 40° C.): 99.97%
- Total impurities (%) (Day 5, 40° C.): 0.03%
- Water (%) (Day 5, 40° C.): 4.4%
- Maximum single impurity (%) (Day 5, 60° C.): 0.151 (RRT: 0.93) %
- Purity (%) (Day 5, 60° C.): 99.83%
- Total impurities (%) (Day 5, 60° C.): 0.17%
- Water (%) (Day 5, 60° C.): 4.3%
- Maximum single impurity (%) (Day 5, light irradiation): 0.032 (RRT: 1.17) %
- Purity (%) (Day 5, light irradiation): 99.94%
- Total impurities (%) (Day 5, light irradiation): 0.06%
- Water (%) (Day 5, light irradiation): 4.4%
- Maximum single impurity (%) (Day 5, relative humidity 75%): 0.019 (RRT: 1.22) %
- Purity (%) (Day 5, relative humidity 75%): 99.97%
- Total impurities (%) (Day 5, relative humidity 75%): 0.03%
- Water (%) (Day 5, relative humidity 75%): 4.4%
- Maximum single impurity (%) (Day 5, relative humidity 92.5%): 0.018 (RRT: 1.22) %
- Purity (%) (Day 5, relative humidity 92.5%): 99.97%
- Total impurities (%) (Day 5, relative humidity 92.5%): 0.03%
- Water (%) (Day 5, relative humidity 92.5%): 4.5%
- Maximum single impurity (%) (Day 10, 40° C.): 0.020 (RRT: 122) %
- Purity (%) (Day 10, 40° C.): 99.98%
- Total impurities (%) (Day 10, 40° C.): 0.02%
- Water (%) (Day 10, 40° C.): 4.5%
- Maximum single impurity (%) (Day 10, 60° C.): 0.020 (RRT: 1.22) %
- Purity (%) (Day 10, 60° C.): 99.94%
- Total impurities (%) (Day 10, 60° C.): 0.06%
- Water (%) (Day 10, 60° C.): 4.4%
- Maximum single impurity (%) (Day 10, light irradiation): 0.177 (RRT: 0.93) %
- Purity (%) (Day 10, light irradiation): 99.80%
- Total impurities (%) (Day 10, light irradiation): 0.20%
- Water (%) (Day 10, light irradiation): 4.5%
- Maximum single impurity (%) (Day 10, relative humidity 75%): 0.022 (RRT: 1.22) %
- Purity (%) (Day 10, relative humidity 75%): 99.98%
- Total impurities (%) (Day 10, relative humidity 75%): 0.02%
- Water (%) (Day 10, relative humidity 75%): 4.4%
- Maximum single impurity (%) [1]: 0.021 (RRT: 1.22) %
- Purity (%) [1]: 99.98%
- Total impurities (%) [1]: 0.02%
- Water (%) [1]: 4.5%
- Maximum single impurity (%) [2]: 0.022 (RRT: 1.22) %
- Purity (%) [2]: 99.98%
- Total impurities (%) [2]: 0.02%
- Water (%) [2]: 4.3%

Structure (SMILES): CCOc1cc2ncnc(Nc3ccc(F)c(Cl)c3)c2cc1NC(=O)/C=C/CN(C)C [Free base, (E)-N-(4-((3-chloro-4-fluorophenyl)amino)-7-ethoxyquinazolin-6-yl)-4-(dimethylamino)but-2-enamide, reference compound]
- Content (%) (40° C., Day 5): 98.96%
- Content (%) (40° C., Day 10): 98.59%
- Content (%) (60° C., Day 5): 96.77%
- Content (%) (60° C., Day 10): 95.15%
- Content (%) (Day 0): 99.37%
- Maximum single impurity (%) (Day 0): 0.45 (RRT: 1.11) %
- Maximum single impurity (%) (Day 5, 40° C.): 0.46 (RRT: 1.11) %
- Maximum single impurity (%) (Day 5, 60° C.): 2.14 (RRT: 0.44) %
- Maximum single impurity (%) (Day 10, 40° C.): 0.71 (RRT: 0.43) %
- Maximum single impurity (%) (Day 10, 60° C.): 2.88 (RRT: 0.43) %
- Stability (result in words) (under the condition of 60° C.): obviously degraded
